# Reference: US20140369943A1, “COMPOSITIONS COMPRISING ISOSORBIDE MONOESTERS AND HALOGENATED ANTIMICROBIAL ACTIVE COMPOUNDS” (CLARIANT INTERNATIONAL LTD., priority 2011, published 2014)
# Entries after “also recorded” stand apart in the source; their conditions may differ. Like-named read-outs stand apart in the source and are kept apart here.
# How the values were obtained:
# [1] = system: bacteria, fungi and yeasts; test: antimicrobial activity, overall statements in words; format: cell-based
# Procedure: (§1) Below, the antimicrobial efficacy of a composition according to the invention consisting of 20% by weight of isorbide caprylate 1 and 80% by weight of a 10% by weight strength solution of 2-bromo-2-nitropropane-1,3-diol (bronopol) in water against bacteria, fungi and yeasts is examined (hereinbelow, the composition is referred to as “composition A”). For the tests with bacteria, composition A was diluted with butyl polyglycol and then, at 50° C., added to liquid CASO agar (casein-peptone agar) buffered to pH 7 (+1-0.2) in various concentrations (hereinbelow referred to as compositions B1, B2, etc.). For the tests with fungi and yeasts, composition A was diluted with butyl polyglycol and then added to liquid Sabouraud 4% dextrose agar buffered to pH 5.6 (+1-0.2) in various concentrations (hereinbelow referred to as compositions PH1, PH2, etc.). The compositions B1, B2, etc. and PH1, PH2 etc. were each poured into Petri dishes and each inoculated with identical amounts of bacteria, fungi and yeasts. The minimum inhibitory concentration (MIC) is the concentration at which inhibition of the growth of the bacteria, fungi and yeasts in the compositions B1, B2, etc. and PH1, PH2, etc. occurs.
# [2] = system: bacteria, fungi and yeasts; conditions: general statement, no data given, cited from earlier work
# Aspergillus brasiliensis = test: MIC determination in agar (antimicrobial efficacy); format: cell-based; conditions: MIC of bronopol alone, Sabouraud 4% dextrose agar pH 5.6, corrected for dilution
# Procedure: as §1
# (§2) The minimum inhibitory concentrations for the pure substances isosorbide caprylate 1 and bronopol were determined analogously.
# (§3) The values determined for the minimum inhibitory concentrations “MIC mixture”, stated in Table 1 below, are based on the concentrations of composition A.
# (§4) The values determined for the minimum inhibitory concentrations “QA” and “QB”, stated in Table 1 below, have already been corrected for the dilution effect of the water and the butyl polyglycol.
# (§5) Kull et al., Applied Microbiology 1961, 9, 538 using the formula below: […]
# (§6) where • Qa is the minimum inhibitory concentration of isosorbide caprylate 1 in the mixture employed, • QA is the minimum inhibitory concentration of isosorbide caprylate 1, • Qb is the minimum inhibitory concentration of bronopol in the mixture employed and • QB is the minimum inhibitory concentration of bronopol.
# (§7) The values for Qa and Qb are determined from the values for the mixtures (“MIC mixture”) by multiplying the minimum inhibitory concentrations determined for Qa with the factor 0.2 and for Qb with the factor 0.08, because of the proportions of the ingredients—20% by weight of isosorbide caprylate 1 and 8% by weight of bronopol—in composition A according to the invention examined.
# (§8) If an SE value >1 is obtained, an antagonistic effect is present.
# Aspergillus terreus = test: MIC determination in agar (antimicrobial efficacy); format: cell-based; conditions: MIC of bronopol alone, Sabouraud 4% dextrose agar pH 5.6, corrected for dilution
# Procedure: as §1, §2, §3, §4, §5, §6, §7, §8
# Candida albicans = test: MIC determination in agar (antimicrobial efficacy); format: cell-based; conditions: MIC of bronopol alone, Sabouraud 4% dextrose agar pH 5.6, corrected for dilution
# Procedure: as §1, §2, §3, §4, §5, §6, §7, §8
# Citrobacter freundii = test: MIC determination in agar (antimicrobial efficacy); format: cell-based; conditions: MIC of bronopol alone, CASO agar pH 7, corrected for dilution
# Procedure: as §1, §2, §3, §4, §5, §6, §7, §8
# Enterobacter aerogenes = test: MIC determination in agar (antimicrobial efficacy); format: cell-based; conditions: MIC of bronopol alone, CASO agar pH 7, corrected for dilution
# Procedure: as §1, §2, §3, §4, §5, §6, §7, §8
# Escherichia coli = test: MIC determination in agar (antimicrobial efficacy); format: cell-based; conditions: MIC of bronopol alone, CASO agar pH 7, corrected for dilution
# Procedure: as §1, §2, §3, §4, §5, §6, §7, §8
# Fusarium solani = test: MIC determination in agar (antimicrobial efficacy); format: cell-based; conditions: MIC of bronopol alone, Sabouraud 4% dextrose agar pH 5.6, corrected for dilution
# Procedure: as §1, §2, §3, §4, §5, §6, §7, §8
# Klebsiella pneumoniae = test: MIC determination in agar (antimicrobial efficacy); format: cell-based; conditions: MIC of bronopol alone, CASO agar pH 7, corrected for dilution
# Procedure: as §1, §2, §3, §4, §5, §6, §7, §8
# Penicillium funicolosium = test: MIC determination in agar (antimicrobial efficacy); format: cell-based; conditions: MIC of bronopol alone, Sabouraud 4% dextrose agar pH 5.6, corrected for dilution
# Procedure: as §1, §2, §3, §4, §5, §6, §7, §8
# Penicillium minioluteum = test: MIC determination in agar (antimicrobial efficacy); format: cell-based; conditions: MIC of bronopol alone, Sabouraud 4% dextrose agar pH 5.6, corrected for dilution
# Procedure: as §1, §2, §3, §4, §5, §6, §7, §8
# Proteus vulgaris = test: MIC determination in agar (antimicrobial efficacy); format: cell-based; conditions: MIC of bronopol alone, CASO agar pH 7, corrected for dilution
# Procedure: as §1, §2, §3, §4, §5, §6, §7, §8
# Pseudomonas aeruginosa = test: MIC determination in agar (antimicrobial efficacy); format: cell-based; conditions: MIC of bronopol alone, CASO agar pH 7, corrected for dilution
# Procedure: as §1, §2, §3, §4, §5, §6, §7, §8
# Pseudomonas oleovorans = test: MIC determination in agar (antimicrobial efficacy); format: cell-based; conditions: MIC of bronopol alone, CASO agar pH 7, corrected for dilution
# Procedure: (§9) Below, the antimicrobial efficacy of a composition according to the invention consisting of 20% by weight of isorbide caprylate 1 and 80% by weight of a 10% by weight strength solution of 2-bromo-2-nitropropane-1,3-diol (bronopol) in water against bacteria, fungi and yeasts is examined (hereinbelow, the composition is referred to as “composition A”). For the tests with bacteria, composition A was diluted with butyl polyglycol and then, at 50° C., added to liquid CASO agar (casein-peptone agar) buffered to pH 7 (+1-0.2) in various concentrations (hereinbelow referred to as compositions B1, B2, etc.). For the tests with fungi and yeasts, composition A was diluted with butyl polyglycol and then added to liquid Sabouraud 4% dextrose agar buffered to pH 5.6 (+1-0.2) in various concentrations (hereinbelow referred to as compositions PH1, PH2, etc.). […]
# as §2, §3
# (§10) The values determined for the minimum inhibitory concentrations “QA” and “QB”, stated in Table 1 below, have already been corrected for the dilution effect of the water and the butyl polyglycol. […]
# Staphylococcus aureus = test: MIC determination in agar (antimicrobial efficacy); format: cell-based; conditions: MIC of bronopol alone, CASO agar pH 7, corrected for dilution
# Procedure: as §9, §2, §3, §10
compound,measurement,setting,value
CCCCCCCC(=O)O [caprylic acid],antimicrobial efficacy as constituent of isosorbide caprylate 1,[1]; present in an amount of only 0.4% by weight,so low that it is negligible; also recorded: lack of antimicrobial activity
same,antimicrobial activity,[2]; at a pH of 6 or above,no antimicrobial activity
same,antimicrobial efficacy,[2],antimicrobially effective
isosorbide monocaprylate,antimicrobial activity,[1]; concluded from activity of isosorbide caprylate 1 and inactivity of its other constituents,significant antimicrobial activity
"O=[N+]([O-])C(Br)(CO)CO [bronopol, 2-bromo-2-nitropropane-1,3-diol]","QB, meas.",Aspergillus brasiliensis,500 ppm
same,"QB, meas.",Aspergillus terreus,1000 ppm
same,"QB, meas.",Candida albicans,500 ppm
same,"QB, meas.",Citrobacter freundii,50 ppm
same,"QB, meas.",Enterobacter aerogenes,75 ppm
same,"QB, meas.",Escherichia coli,50 ppm
same,"QB, meas.",Fusarium solani,500 ppm
same,"QB, meas.",Klebsiella pneumoniae,50 ppm
same,"QB, meas.",Penicillium funicolosium,150 ppm
same,"QB, meas.",Penicillium minioluteum,500 ppm
same,"QB, meas.",Proteus vulgaris,50 ppm
same,"QB, meas.",Pseudomonas aeruginosa,75 ppm
same,"QB, meas.",Pseudomonas oleovorans,50 ppm
same,"QB, meas.",Staphylococcus aureus,75 ppm
O[C@@H]1CO[C@H]2[C@@H]1OC[C@@H]2O [isosorbide],antimicrobial activity,[1]; overall conclusion in words from Tables 1 and 2,neither isosorbide nor isosorbide dicaprylate are antimicrobially active; also recorded: lack of antimicrobial activity
